In data set [1] the test system is D-allose dehydrogenase. Nature of the data set: NAD cofactor coupled D-allose dehydrogenase spectrophotometric enzyme assay (340 nm). In kind it is biochemical, Exophiala pisciphila. Particulars: for Activity (carbohydrate specificity): Sugar 100 mM as substrate, pH 9.0, 30° C., same dose of enzyme extract. The procedure: Soil and water samples were obtained from several sites and incubated with D-allose in a basic salts solution. The bacterial and fungal cultures were grown aerobically at 30° C. in a rotary incubator at 250 rpm. The basic salts growth medium contained: Na2 HPO4, 16 raM; KH2 PO4, 34 mM; (NH4)2 SO4, 15 mM; MgSO4, 1 mM; CaCl2, 0.1 mM; FeSO4, 0.01 mM and D-allose, 10 mM. The pH of the medium was 6.5. After growth in liquid, as determined by an increase in optical density, the cultures were streaked out on solid agar media containing D-allose as the growth substrate. […] After growth on D-allose, the individual cultures were harvested by centrifugation and the cells disrupted using a sonicator. Cell debris was removed by centrifugation and the crude cell extract was assayed for D-allose dehydrogenase enzymatic activity.
The enzyme assay was performed with a Beckman DU70 recording spectrophotometer using 340 nanometer wavelength light with 20 sec. interval readings for a 10 minute time period. Assays were run in 1 ml cuvettes at a constant temperature of 30° C. The instantaneous reaction rate was measured as the change in optical density per minute; activity was calculated at early reaction times when the changes in optical density were linear with time. The rate of enzyme reaction is directly proportional to the appearance of reduced NAD at 340 nm, because the enzyme oxidizes D-allose and transfers two protons from D-allose to NAD. The extinction coefficient of NADH2 (6.23 OD/1 mM solution) was used to convert the change in optical density per minute to micromoles of product. A standard curve of reaction rate versus substrate concentration was used to determine the D-allose concentration in unknown samples (FIG. 1). The Km of an enzyme is the concentration of substrate that gives one half maximal reaction rate and is thus a measure of the affinity of the enzyme for this substrate. The Vmax of an enzyme is the maximum rate of reaction that can be obtained where the substrate concentration is fully saturating the enzyme. […] An internal standard control using a 20 mM addition of D-allose to a duplicate unknown sample was used to determine if the sample interfered with D-allose measurement. If interference was detected, the unknown sample D-allose concentration was corrected for by the percent interference measured in the internal control sample.
The spectrophotometric enzyme reactions were performed in a 1 mL cuvette that contained the following. […]
The results of Table 1 were obtained at 30° C. using a solution containing 100 mM in D-allose.
In this series, a constant amount of enzyme extract was added to D-allose at various concentrations with the results summarized in Table 2.
In these experiments 1 mL of a 100 mM solution of various sugars were treated at pH 9.0 and 30° C. with the same dose of enzyme extract.

Data set [2] has as its system D-allose dehydrogenase. In words: Visual qualitative D-allose assay with electron accepting dyes. Type of data set: biochemical, Exophiala pisciphila. To be noted: phenozine methosulfate and nitro blue tetrazolium, phosphate buffer pH 8.0. The source says:
The assay can be coupled with electron accepting dyes to form a visual qualitative D-allose assay. […] Control samples without D-allose remain light pink. The nature of the electron-accepting dye is not critical to the success of this qualitative assay; electron-accepting dyes are well known in the biochemical arts and are merely exemplified by the class of tetrazolium salts, one of which is nitro blue tetrazolium.
The visual D-allose assay contained: […]

The conditions of data set [3]: animals and humans; cited from earlier work.

Values joined by “and” are separate entries in the source; they are usually repeats but may differ in a detail not shown here. Equal values may be shown once. Some results are limits rather than exact numbers.

As usually defined, the Km is the concentration of substrate that gives half-maximal velocity. Usually % Inhibition stands for how much of the control response was suppressed. A lower % Inhibition goes with a response near the control. On to `O=C[C@H](O)[C@H](O)[C@H](O)[C@H](O)CO` [D-allose], for which the Km in data set [1] (30° C., pH 9.0 glycine-NaOH, NAD 5 mM, read-out: apparent Km for the enzyme with D-allose as substrate) was 77 mM. Further, the Activity in data set [1] (Buffer 0.2 molar, initial pH 9.0, final pH 8.5, 100 mM D-allose, 30° C.) is 2.35 µmol/min/mL; in data set [1] (Buffer 0.5 molar, initial pH 9.0, final pH 8.9, 100 mM D-allose, 30° C.), 2.56 µmol/min/mL; in data set [1] (Buffer 1.0 molar, initial pH 9.0, final pH 9.0, 100 mM D-allose, 30° C.), 2.75 µmol/min/mL; in data set [1] (Buffer 2.0 molar, initial pH 9.0, final pH 9.0, 100 mM D-allose, 30° C.), 3.13 µmol/min/mL; in data set [1] (D-allose 1 mM, constant amount of enzyme extract) it was 0.13 μmole/min/ml of extract; in data set [1] (D-allose 10 mM, constant amount of enzyme extract) it was 0.80 μmole/min/ml of extract. Further, the Activity in data set [1] (D-allose 100 mM, constant amount of enzyme extract) is 3.07 μmole/min/ml of extract; in data set [1] (Enzyme Extract 20 μL, 100 mM D-allose, 30° C.), 0.09 µmol/min; in data set [1] (Enzyme Extract 50 μL, 100 mM D-allose, 30° C.), 0.15 µmol/min; in data set [1] (Enzyme Extract 100 μL, 100 mM D-allose, 30° C.), 0.26 µmol/min; in data set [1] (pH of assay buffer 8.0, 100 mM D-allose, 30° C.), less than 0.05 µmol/min/mL; in data set [1] (pH of assay buffer 8.5, 100 mM D-allose, 30° C.), 0.78 µmol/min/mL. The Activity is 2.38 µmol/min/mL and 2.31 µmol/min/mL in data set [1] (pH of assay buffer 9.0, 100 mM D-allose, 30° C.); 0.10 µmol/min/mL in data set [1] (pH of assay buffer 9.5, 100 mM D-allose, 30° C.); less than 0.05 µmol/min/mL in data set [1] (pH of assay buffer 10.0, 100 mM D-allose, 30° C.). The “% Inhibition” value in data set [1] (D-allose 10 mM in 20% human serum) is on record as 16%. Moreover, in data set [1], the “Activity (carbohydrate specificity)” value came out at 2.93 µmol/min/mL. The visual color change result in data set [2] is reported as “color change from light pink to dark blue”. Also, the excretion result in data set [3] is recorded as “easily excreted”. Besides, the metabolism result in data set [3] is “not readily metabolized”.

Turning to `O=C[C@@H](O)[C@H](O)[C@H](O)[C@H](O)CO` [D-altrose, reference compound], in data set [1], the “Activity (carbohydrate specificity)” value is less than 0.07 µmol/min/mL.

On to `O=C[C@H](O)[C@@H](O)[C@H](O)[C@H](O)CO` [D-glucose, reference compound], for which the “Activity (carbohydrate specificity)” value in data set [1] was less than 0.07 µmol/min/mL.

Turning to `O=C[C@@H](O)[C@@H](O)[C@H](O)[C@H](O)CO` [D-mannose, reference compound], in data set [1], the “Activity (carbohydrate specificity)” value is less than 0.07 µmol/min/mL.

In the case of `O=C[C@H](O)[C@H](O)[C@H](O)CO` [D-ribose, reference compound], in data set [1], the “Activity (carbohydrate specificity)” value is less than 0.07 µmol/min/mL.

Source of the values: patent US5567605A, “Assay for D-allose using a NAD cofactor coupled D-allose dehydrogenase” (UOP, priority 1994, dated 1996).
